Measured values: ChEMBL document CHEMBL5042477, “Potent Cyclic Peptide Inhibitors of FXIIa Discovered by mRNA Display with Genetic Code Reprogramming” (J Med Chem, 2021)
Each block holds one molecule with its values, some of them ahead of it. Activity calls are given as the source filed them. No cut-off for these calls is given here.

Legend:
Coagulation factor XII [1] = target: T1, Coagulation factor XII (Homo sapiens, UniProt P00748); test: Inhibition of human factor 12a using H-D-Pro-Phe-Arg-p-nitroanilide as chromogenic substrate assessed as liberation of p-nitroaniline measured every 5 mins for 60 min by multimode plate reader analysis
T1 sequence (P00748 whole entry): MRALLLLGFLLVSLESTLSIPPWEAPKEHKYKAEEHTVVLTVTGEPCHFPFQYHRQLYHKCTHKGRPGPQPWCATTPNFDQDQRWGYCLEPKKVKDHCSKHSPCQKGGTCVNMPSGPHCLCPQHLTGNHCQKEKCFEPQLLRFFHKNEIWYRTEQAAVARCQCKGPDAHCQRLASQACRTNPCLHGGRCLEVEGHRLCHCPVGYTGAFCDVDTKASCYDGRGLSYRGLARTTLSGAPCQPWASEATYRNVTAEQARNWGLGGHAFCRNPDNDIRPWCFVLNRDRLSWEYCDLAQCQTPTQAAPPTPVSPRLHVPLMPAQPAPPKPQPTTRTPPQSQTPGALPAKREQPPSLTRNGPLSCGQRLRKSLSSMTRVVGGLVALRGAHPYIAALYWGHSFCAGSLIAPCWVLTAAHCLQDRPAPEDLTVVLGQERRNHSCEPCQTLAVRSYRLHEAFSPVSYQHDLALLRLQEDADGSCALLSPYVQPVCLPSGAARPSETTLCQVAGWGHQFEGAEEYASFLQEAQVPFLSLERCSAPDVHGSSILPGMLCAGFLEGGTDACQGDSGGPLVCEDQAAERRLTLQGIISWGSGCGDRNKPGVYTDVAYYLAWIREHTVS

Coagulation factor XII [2] = target: T1, Coagulation factor XII; test: Inhibition of human factor 12a using H-D-Pro-Phe-Arg-p-nitroanilide as chromogenic substrate assessed as liberation of p-nitroaniline in presence of BSA measured every 5 mins for 60 min by multimode plate reader analysis
Coagulation factor X = Coagulation factor X (Homo sapiens, UniProt P00742); test: Inhibition of human factor 10a using methoxycarbonyl-D-Nle-Gly-Arg-pNA as substrate measured after 60 mins by microplate reader analysis
Coagulation factor X, sequence (P00742 41-179 limits assumed): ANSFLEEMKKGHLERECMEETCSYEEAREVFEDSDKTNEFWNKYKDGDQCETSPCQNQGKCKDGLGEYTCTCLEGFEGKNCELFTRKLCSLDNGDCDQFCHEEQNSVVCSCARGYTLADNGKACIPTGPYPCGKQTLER
Coagulation factor X, sequence (P00742 235-488 limits assumed): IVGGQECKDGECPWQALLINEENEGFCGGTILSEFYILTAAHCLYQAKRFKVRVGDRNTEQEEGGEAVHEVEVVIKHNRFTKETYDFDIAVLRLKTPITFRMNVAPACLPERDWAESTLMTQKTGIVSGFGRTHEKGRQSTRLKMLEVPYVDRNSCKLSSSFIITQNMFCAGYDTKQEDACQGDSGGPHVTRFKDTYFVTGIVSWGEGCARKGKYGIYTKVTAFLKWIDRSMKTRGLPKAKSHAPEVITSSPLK

Plasma kallikrein = Plasma kallikrein (Homo sapiens, UniProt P03952); test: Inhibition of plasma kallikrein (unknown origin); type: cell-free
Plasma kallikrein, sequence (P03952 20-390 limits assumed): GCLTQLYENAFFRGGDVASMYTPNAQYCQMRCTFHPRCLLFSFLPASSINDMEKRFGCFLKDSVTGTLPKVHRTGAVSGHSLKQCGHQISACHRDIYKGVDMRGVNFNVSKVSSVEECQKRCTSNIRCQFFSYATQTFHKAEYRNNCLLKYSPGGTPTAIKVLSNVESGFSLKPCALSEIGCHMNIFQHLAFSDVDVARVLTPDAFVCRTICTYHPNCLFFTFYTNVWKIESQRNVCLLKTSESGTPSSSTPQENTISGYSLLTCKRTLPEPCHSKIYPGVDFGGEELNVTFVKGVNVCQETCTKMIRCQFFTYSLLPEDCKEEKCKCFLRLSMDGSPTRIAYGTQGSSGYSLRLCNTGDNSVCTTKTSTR
Plasma kallikrein, sequence (P03952 391-638 limits assumed): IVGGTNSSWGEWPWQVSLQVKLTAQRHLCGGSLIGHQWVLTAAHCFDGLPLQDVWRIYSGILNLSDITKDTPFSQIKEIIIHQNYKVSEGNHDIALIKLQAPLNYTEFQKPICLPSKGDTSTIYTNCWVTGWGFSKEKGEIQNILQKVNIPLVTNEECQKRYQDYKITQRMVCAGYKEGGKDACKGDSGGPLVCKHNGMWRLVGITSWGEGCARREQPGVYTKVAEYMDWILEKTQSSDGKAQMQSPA

[3] = target: Urokinase-type plasminogen activator (Homo sapiens, UniProt P00749); test: Inhibition of Urokinase-type plasminogen activator (unknown origin)
Coagulation factor VII = target: T2, Coagulation factor VII (Homo sapiens, UniProt P08709); test: Inhibition of factor 7a (unknown origin)
T2 sequence (P08709 whole entry): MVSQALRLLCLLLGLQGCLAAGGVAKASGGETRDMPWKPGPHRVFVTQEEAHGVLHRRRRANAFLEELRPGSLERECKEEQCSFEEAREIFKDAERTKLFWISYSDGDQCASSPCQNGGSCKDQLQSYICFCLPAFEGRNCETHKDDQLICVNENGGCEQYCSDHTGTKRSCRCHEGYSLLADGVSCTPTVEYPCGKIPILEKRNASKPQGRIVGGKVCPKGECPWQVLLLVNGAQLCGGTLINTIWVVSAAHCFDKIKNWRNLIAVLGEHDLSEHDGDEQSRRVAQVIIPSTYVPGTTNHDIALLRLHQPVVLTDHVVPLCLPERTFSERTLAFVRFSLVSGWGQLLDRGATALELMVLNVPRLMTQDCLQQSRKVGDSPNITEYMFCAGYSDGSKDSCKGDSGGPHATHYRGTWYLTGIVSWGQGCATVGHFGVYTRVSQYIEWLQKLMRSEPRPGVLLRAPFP

Trypsin = Trypsin (Homo sapiens, UniProt P07477+P07478+P35030); test: Inhibition of trypsin (unknown origin); type: protein assay
Plasminogen = Plasminogen (Homo sapiens, UniProt P00747); test: Inhibition of plasmin (unknown origin)
Plasminogen, sequence (P00747 97-580 limits assumed): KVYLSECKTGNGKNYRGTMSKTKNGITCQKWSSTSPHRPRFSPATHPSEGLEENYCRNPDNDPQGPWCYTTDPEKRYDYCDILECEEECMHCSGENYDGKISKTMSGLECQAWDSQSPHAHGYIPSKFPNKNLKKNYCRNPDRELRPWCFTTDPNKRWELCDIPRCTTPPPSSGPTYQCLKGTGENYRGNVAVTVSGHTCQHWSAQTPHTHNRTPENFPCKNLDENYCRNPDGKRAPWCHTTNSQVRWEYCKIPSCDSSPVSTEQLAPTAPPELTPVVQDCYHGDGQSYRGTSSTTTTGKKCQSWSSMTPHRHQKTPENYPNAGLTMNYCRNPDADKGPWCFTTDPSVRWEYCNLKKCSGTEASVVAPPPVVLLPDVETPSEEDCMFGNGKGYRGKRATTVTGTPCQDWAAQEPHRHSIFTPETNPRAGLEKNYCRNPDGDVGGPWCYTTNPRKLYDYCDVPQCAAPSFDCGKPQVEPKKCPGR
Plasminogen, sequence (P00747 581-810 limits assumed): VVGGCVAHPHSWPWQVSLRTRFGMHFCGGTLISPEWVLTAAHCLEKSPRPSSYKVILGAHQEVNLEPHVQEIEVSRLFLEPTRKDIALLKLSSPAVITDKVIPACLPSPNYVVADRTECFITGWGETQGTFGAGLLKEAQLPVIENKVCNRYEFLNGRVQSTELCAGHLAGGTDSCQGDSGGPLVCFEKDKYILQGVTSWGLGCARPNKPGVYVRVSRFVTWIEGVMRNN

Plasma [4] = test: Anticoagulant activity in pooled human plasma assessed as prolongation of activated partial thromboplastin time at 12.5 uM incubated for 7 mins; type: functional, cell-free
Plasma [5] = test: Anticoagulant activity in pooled human plasma assessed as prolongation of prothrombin time at 12.5 uM incubated for 7 mins; type: functional, cell-free
Plasma [6] = test: Anticoagulant activity in pooled human plasma assessed as prolongation of activated partial thromboplastin time at 1.25 uM incubated for 7 mins; type: functional, cell-free
Plasma [7] = test: Anticoagulant activity in pooled human plasma assessed as reduction in ellagic acid induced thrombin generation using Z-GGR-AMC as fluorogenic substrate by calibrated automated thrombogram analysis; type: functional, cell-free
Plasma [8] = test: Anticoagulant activity in pooled human plasma assessed as reduction in ellagic acid induced thrombin generation using Z-GGR-AMC as fluorogenic substrate at 4 uM by calibrated automated thrombogram analysis; type: functional, cell-free
[9] = target: T3, Coagulation factor XII (Homo sapiens) (UniProt P00748); test: Inhibition of human factor 12a activation in citrated pooled human plasma assessed as inhibition of bradykinin release incubated for 10 mins followed by kaolin addition and measured after 15 mins by ELISA; type: cell-free; conditions: dose 1-200 µM, time 25.0 min
T3 sequence (whole entry): T1 sequence (P00748 whole entry)

[10] = Stability in pooled human plasma measured upto 24 hrs by UPLC-MS analysis; type: ADME, cell-free
Plasma [11] = test: Anticoagulant activity in FXII-deficient human plasma assessed as effect on total thrombin generation using Z-GGR-AMC as fluorogenic substrate at 8 uM by calibrated automated thrombogram analysis; type: functional, cell-free
Homo sapiens = species: Homo sapiens; test: Selectivity index, ratio of IC50 for inhibition of human factor 12a using H-D-Pro-Phe-Arg-p-nitroanilide as chromogenic substrate to IC50 for inhibition of human factor 10a using methoxycarbonyl-D-Nle-Gly-Arg-pNA as substrate
[12] = target: T3, Coagulation factor XII (Homo sapiens); test: Inhibition of human factor 12a using H-D-Pro-Phe-Arg-p-nitroanilide as chromogenic substrate assessed as liberation of p-nitroaniline at […] measured every 5 mins for 60 min by multimode plate reader analysis
[13] = target: T3, Coagulation factor XII (Homo sapiens); test: Inhibition of human factor 12a using H-D-Pro-Phe-Arg-p-nitroanilide as chromogenic substrate assessed as liberation of p-nitroaniline at 2 mM measured every 5 mins for 60 min by multimode plate reader analysis

IC50 (Coagulation factor XII [1]): 0.062 µM
IC50 (Coagulation factor XII [2]): 0.061 µM
IC50 (Coagulation factor X): 59 µM
IC50 (Plasma kallikrein): > 100 µM
IC50 [3]: > 100 µM
IC50 (Coagulation factor VII): > 100 µM
IC50 (Trypsin): > 31 µM
IC50 (Plasminogen): > 100 µM
EC50 (Plasma [7]): 0.7 µM
inhibition [9]: Dose-Dependent Effect
Stability [10]: Stable
Ratio IC50 (Homo sapiens): 100
Molecule: CC(C)C[C@@H]1NC(=O)[C@H](Cc2ccc(O)cc2)NC(=O)CSC[C@@H](C(N)=O)NC(=O)CNC(=O)CNC(=O)[C@H](CCCNC(=N)N)NC(=O)[C@H](CC(=O)O)NC(=O)[C@H](CCCCN)NC(=O)[C@@H]2CCCN2C(=O)[C@H](CCCNC(=N)N)NC(=O)[C@H](Cc2ccccc2)NC(=O)[C@H](CCCNC(=N)N)NC1=O
Activity (Plasma [4]): Active
Activity (Plasma [5]): Active
Activity (Plasma [6]): Active
Activity (Plasma [8]): Active
Activity (Plasma [11]): inactive

inhibition [12]: inactive
Molecule: CC(C)C[C@@H]1NC(=O)[C@H](Cc2ccc(O)cc2)NC(=O)CSC[C@@H](C(N)=O)NC(=O)CNC(=O)CNC(=O)[C@H](CCCNC(=N)N)NC(=O)[C@H](CC(=O)O)NC(=O)[C@H](CCCCN)NC(=O)[C@@H]2CCCN2C(=O)[C@H](CCCNC(=N)N)NC(=O)[C@H](Cc2ccccc2)NC(=O)[C@@H](CCCNC(=N)N)NC1=O

inhibition [13]: inactive
Molecule: Ac-YLRFR-NH2
